This is an account of results in patent US20060178382A1, “Chinazoline derivatives as aurora kinase inhibitors” (AstraZeneca AB, priority 2003, published 2006).

pIC50: −log10 of the molar value.

One test concerns the target T1, Aurora-A kinase (Homo sapiens, UniProt O14965).
T1 construct: 6 histidine tag with spacer region and rTEV protease cleavage site (pFastBac HTc) (N); made in house; host or cells: Spodoptera frugiperda Sf21 insect cells (baculovirus)
T1 sequence (O14965 1-403): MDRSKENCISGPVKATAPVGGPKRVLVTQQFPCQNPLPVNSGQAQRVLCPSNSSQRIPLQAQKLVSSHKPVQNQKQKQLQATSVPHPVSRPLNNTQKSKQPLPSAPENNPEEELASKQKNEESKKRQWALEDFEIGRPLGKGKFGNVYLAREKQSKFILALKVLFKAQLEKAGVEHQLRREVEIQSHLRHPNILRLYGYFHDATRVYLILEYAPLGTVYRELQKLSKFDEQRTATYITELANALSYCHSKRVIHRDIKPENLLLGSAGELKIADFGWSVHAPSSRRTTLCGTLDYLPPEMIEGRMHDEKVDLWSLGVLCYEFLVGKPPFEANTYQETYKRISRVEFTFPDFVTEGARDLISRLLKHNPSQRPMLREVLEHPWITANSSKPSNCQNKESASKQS
In words: In vitro Aurora-A kinase inhibition test. The test is classed as biochemical.

The target of another test is T2, Aurora-B kinase (Homo sapiens, UniProt Q96GD4).
T2 construct: 6-histidine tag; made in house; host or cells: Spodoptera frugiperda Sf21 insect cells (baculovirus)
T2 sequence (Q96GD4 whole entry): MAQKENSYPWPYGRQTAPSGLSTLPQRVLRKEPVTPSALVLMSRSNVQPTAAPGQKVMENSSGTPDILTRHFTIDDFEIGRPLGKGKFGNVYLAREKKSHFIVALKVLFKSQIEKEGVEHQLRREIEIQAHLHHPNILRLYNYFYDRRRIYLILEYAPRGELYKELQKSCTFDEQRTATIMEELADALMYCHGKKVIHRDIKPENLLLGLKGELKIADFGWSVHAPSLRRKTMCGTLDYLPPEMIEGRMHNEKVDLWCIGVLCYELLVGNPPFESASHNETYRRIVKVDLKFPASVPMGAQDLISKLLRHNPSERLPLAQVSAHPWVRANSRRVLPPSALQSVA
In words: In vitro Aurora-B kinase inhibition test. The test is classed as biochemical. The conditions noted are these: recombinant Aurora-B, [γ33P]ATP, peptide substrate, 60 minutes room temperature; read-out: concentration giving 50% inhibition of enzyme activity. An excerpt:
(b) In Vitro Aurora-B Kinase Inhibition Test
This assay determines the ability of a test compound to inhibit serine-threonine kinase activity. DNA encoding Aurora-B may be obtained by total gene synthesis or by cloning. This DNA may then be expressed in a suitable expression system to obtain polypeptide with serine-threonine kinase activity. In the case of Aurora-B, the coding sequence was isolated from cDNA by polymerase chain reaction (PCR) and cloned into the pFastBac system in a manner similar to that described above for Aurora-A (i.e. to direct expression of a 6-histidine tagged Aurora-B protein).
For the large scale expression of Aurora-B kinase activity, Sf21 insect cells were grown at 28° C. in TC100 medium supplemented with 10% foetal calf serum (Viralex) and 0.2% F68 Pluronic (Sigma) on a Wheaton roller rig at 3 r.p.m. When the cell density reached 1.2×10^6 cells ml^−1 they were infected with plaque-pure Aurora-B recombinant virus at a multiplicity of infection of 1 and harvested 48 hours later. All subsequent purification steps were performed at 4° C. […]

As to `COc1cc2c(Nc3cn(CC(=O)Nc4cccc(F)c4)nn3)ncnc2cc1OCCCCl` [Compound 1, 2-(4-{[7-(3-chloropropoxy)-6-methoxyguinazolin-4-yl]amino}-1H-1,2,3-triazol-1-yl)-N-(3-fluorophenyl)acetamide], the pIC50 against Aurora-A kinase was 6.05; on Aurora-B kinase, 7.00.

For `CCCN(CCO)CCCOc1cc2ncnc(Nc3cn(CC(=O)Nc4cccc(F)c4)nn3)c2cc1OC` [Compound 4, N-(3-fluorophenyl)-2-{4-[(7-{3-[(2-hydroxyethyl)(propyl)amino]propoxy}-6-methoxyquinazolin-4-yl)amino]-1H-1,2,3-triazol-1-yl}acetamide], the pIC50 at Aurora-A kinase is 6.30; on Aurora-B kinase, 7.00.
